Columns and labels:
[1] = target: human factor XIa (Homo sapiens (Human), UniProt P03951); assay: Measurement of FXIa inhibition; assay type: biochemical; conditions: factor XIa from Kordia, substrate Boc-Glu(OBzl)-Ala-Arg-AMC, fluorescence
Method: a.1) Measurement of FXIa Inhibition
(§1) The factor XIa inhibition of the substances according to the invention is determined using a biochemical test system which utilizes the reaction of a peptidic factor XIa substrate to determine the enzymatic activity of human factor XIa. Here, factor XIa cleaves from the peptic factor XIa substrate the C-terminal aminomethylcoumarin (AMC), the fluorescence of which is measured. The determinations are carried out in microtitre plates.
1 μl of the diluted substance solutions is placed into each of the wells of white microtitre plates from Greiner (384 wells). […] After 15 min of incubation, the enzyme reaction is started by addition of 20 μl of the factor XIa substrate Boc-Glu(OBzl)-Ala-Arg-AMC dissolved in assay buffer (10 μM in assay buffer) from Bachem, the mixture is incubated at room temperature (22° C.) for 30 min and fluorescence is then measured (excitation: 360 nm, emission: 460 nm). The measured emissions of the test batches with test substance are compared to those of control batches without test substance (only dimethyl sulphoxide instead of test substance in dimethyl sulphoxide), and IC50 values are calculated from the concentration/activity relationships.

[2] = target: human plasma kallikrein (Homo sapiens (Human), UniProt P03952); assay: Determination of the plasma kallikrein activity; assay type: biochemical; conditions: plasma kallikrein from Kordia, substrate H-Pro-Phe-Arg-AMC, fluorescence
Method: a.5) Determination of the Plasma Kallikrein Activity
as §1, with “To determine the plasma kallikrein” for “The factor XIa”, “invention,” for “invention is determined using”, “system is used” for “system”, “plasma kallikrein” for “factor XIa”, “plasma kallikrein.” for “factor XIa.”
1 μl of the diluted substance solutions is placed into each of the wells of white microtitre plates from Greiner (384 wells). 20 μl of assay buffer (50 mM Tris/HCl pH 7.4; 100 mM sodium chloride solution; 5 mM of calcium chloride solution; 0.1% of bovine serum albumin) and 20 μl of plasma kallikrein from Kordia (0.6 nM in assay buffer) are then added successively. After 15 min of incubation, the enzyme reaction is started by addition of 20 μl of the substrate H-Pro-Phe-Arg-AMC dissolved in assay buffer (10 μM in assay buffer) from Bachem, the mixture is incubated at room temperature (22° C.) for 30 min and fluorescence is then measured (excitation: 360 nm, emission: 460 nm). The measured emissions of the test batches with test substance are compared to those of control batches without test substance (only dimethyl sulphoxide instead of test substance in dimethyl sulphoxide), and IC50 values are calculated from the concentration/activity relationships.

Sequence of human plasma kallikrein (P03952 391-638): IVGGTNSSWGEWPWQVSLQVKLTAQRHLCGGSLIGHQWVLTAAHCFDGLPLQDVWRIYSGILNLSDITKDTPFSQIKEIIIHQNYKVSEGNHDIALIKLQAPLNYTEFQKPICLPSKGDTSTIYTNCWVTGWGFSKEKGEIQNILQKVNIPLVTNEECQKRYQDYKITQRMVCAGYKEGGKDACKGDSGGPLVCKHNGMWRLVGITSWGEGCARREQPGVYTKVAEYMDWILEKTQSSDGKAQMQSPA
Sequence of human plasma kallikrein (P03952 20-390 partner): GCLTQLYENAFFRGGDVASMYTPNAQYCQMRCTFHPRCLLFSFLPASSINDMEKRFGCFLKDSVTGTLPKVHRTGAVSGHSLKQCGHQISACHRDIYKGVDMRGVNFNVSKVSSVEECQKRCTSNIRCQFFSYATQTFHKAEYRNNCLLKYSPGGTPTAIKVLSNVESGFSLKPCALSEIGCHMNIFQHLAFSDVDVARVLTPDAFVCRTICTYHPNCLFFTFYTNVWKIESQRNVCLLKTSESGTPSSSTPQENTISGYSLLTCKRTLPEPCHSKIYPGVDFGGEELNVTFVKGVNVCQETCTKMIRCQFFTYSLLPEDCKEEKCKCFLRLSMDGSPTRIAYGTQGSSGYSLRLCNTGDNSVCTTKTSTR
Sequence of human factor XIa (P03951 388-625): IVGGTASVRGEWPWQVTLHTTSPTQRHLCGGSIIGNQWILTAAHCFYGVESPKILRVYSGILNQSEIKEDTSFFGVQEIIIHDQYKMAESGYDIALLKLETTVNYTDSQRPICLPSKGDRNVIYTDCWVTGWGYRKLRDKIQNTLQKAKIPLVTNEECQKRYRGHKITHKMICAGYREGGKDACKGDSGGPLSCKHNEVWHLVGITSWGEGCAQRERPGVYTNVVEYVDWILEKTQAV
Sequence of human factor XIa (P03951 19-387 partner): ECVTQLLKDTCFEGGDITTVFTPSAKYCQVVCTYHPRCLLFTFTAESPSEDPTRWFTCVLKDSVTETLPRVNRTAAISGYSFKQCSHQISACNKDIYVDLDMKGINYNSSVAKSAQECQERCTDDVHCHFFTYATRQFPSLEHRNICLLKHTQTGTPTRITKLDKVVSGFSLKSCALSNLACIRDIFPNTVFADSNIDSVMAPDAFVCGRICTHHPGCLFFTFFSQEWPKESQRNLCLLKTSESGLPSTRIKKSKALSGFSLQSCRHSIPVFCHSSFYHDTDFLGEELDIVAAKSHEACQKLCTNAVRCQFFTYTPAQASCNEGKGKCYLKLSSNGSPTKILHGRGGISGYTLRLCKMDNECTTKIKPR

IC50 [1]	IC50 [2]	SMILES
0.1 µM	3.9 µM	COCCC(C(=O)Nc1cc(C(=O)O)cs1)n1cc2c(cc1=O)-c1cc(Cl)ccc1CC1(CC1)NC2=O (stereo not shown) [Example 23, 5-{[2-(11′-Chloro-2′,5′-dioxo-2′,5′,6′,8′-tetrahydro-3′H-spiro[cyclopropane-1,7′-pyrido[3,4-e][3]benzazocine]-3′-yl)-4-methoxybutanoyl]amino}thiophene-3-carboxylic acid]
0.0082 µM	0.24 µM	COCCC(C(=O)Nc1ccc2nn(C)cc2c1)n1cc2c(cc1=O)-c1cc(Cl)ccc1CC1(CC1)NC2=O (stereo not shown) [Example 15, 2-(11′-Chloro-2′,5′-dioxo-2′,5′,6′,8′-tetrahydro-3′H-spiro[cyclopropane-1,7′-pyrido[3,4-e][3]benzazocine]-3′-yl)-4-methoxy-N-(2-methyl-2H-indazol-5-yl)butanamide]
0.018 µM	0.23 µM	COCCC(C(=O)Nc1ccc2[nH]c(=O)[nH]c2c1)n1cc2c(cc1=O)-c1cc(Cl)ccc1CC1(CC1)NC2=O (stereo not shown) [Example 14, 2-(11′-Chloro-2′,5′-dioxo-2′,5′,6′,8′-tetrahydro-3′H-spiro[cyclopropane-1,7′-pyrido[3,4-e][3]benzazocine]-3′-yl)-4-methoxy-N-(2-oxo-2,3-dihydro-1H-benzimidazol-5-yl)butanamide]
0.0018 µM	0.055 µM	O=C(O)c1ccc(NC(=O)C(Cc2ccccc2)n2cc3c(cc2=O)-c2cc(Cl)ccc2CC2(CC2)NC3=O)cc1 (stereo not shown) [Example 28, 4-{[2-(11′-Chloro-2′,5′-dioxo-2′,5′,6′,8′-tetrahydro-3′H-spiro[cyclopropane-1,7′-pyrido[3,4-e][3]benzazocine]-3′-yl)-3-phenylpropanoyl]amino}benzoic acid]
0.034 µM	0.74 µM	CO[C@H]1CC[C@H](CC(C(=O)Nc2ccc(C(N)=O)c(F)c2)n2cc3c(cc2=O)-c2cc(Cl)ccc2CC2(CC2)NC3=O)CC1 (stereo partly drawn) [Example 26, 4-{[2-(11′-Chloro-2′,5′-dioxo-2′,5′,6′,8′-tetrahydro-3′H-spiro[cyclopropane-1,7′-pyrido[3,4-e][3]benzazocine]-3′-yl)-3-(trans-4-methoxycyclohexyl)propanoyl]amino}-2-fluorobenzamide]
0.028 µM	1.9 µM	CCC(C(=O)Nc1ccc(C(=O)O)cc1)n1cc2c(cc1=O)-c1cc(Cl)ccc1CCNC2=O (stereo not shown) [Example 6, 4-{[2-(11-Chloro-2,5-dioxo-5,6,7,8-tetrahydropyrido[3,4-e][3]benzazocin-3(2H)-yl)butanoyl]amino}benzoic acid]
0.004 µM	0.34 µM	COCCC(C(=O)Nc1ccc(C(=O)O)s1)n1cc2c(cc1=O)-c1cc(Cl)ccc1CC1(CC1)NC2=O (stereo not shown) [Example 22, 5-{[2-(11′-Chloro-2′,5′-dioxo-2′,5′,6′,8′-tetrahydro-3′H-spiro[cyclopropane-1,7′-pyrido[3,4-e][3]benzazocine]-3′-yl)-4-methoxybutanoyl]amino}thiophene-2-carboxylic acid]
0.0077 µM	2.1 µM	CCC(C(=O)Nc1ccc(C(=O)O)cc1)n1cc2c(cc1=O)-c1cc(Cl)ccc1CC1(CC1)NC2=O (stereo not shown) [Example 10, 4-{[2-(11′-Chloro-2′,5′-dioxo-2′,5′,6′,8′-tetrahydro-3′H-spiro[cyclopropane-1,7′-pyrido[3,4-e][3]benzazocine]-3′-yl)butanoyl]amino}benzoic acid]
0.044 µM	3.3 µM	CCC(C(=O)Nc1ccc(-c2noc(=O)[nH]2)cc1)n1cc2c(cc1=O)-c1cc(Cl)ccc1CCNC2=O (stereo not shown) [Example 7, 2-(11-Chloro-2,5-dioxo-5,6,7,8-tetrahydropyrido[3,4-e][3]benzazocin-3(2H)-yl)-N-[4-(5-oxo-4,5-dihydro-1,2,4-oxadiazol-3-yl)phenyl]butanamide]
0.0045 µM	0.045 µM	Cn1cc2cc(NC(=O)C(Cc3ccccc3)n3cc4c(cc3=O)-c3cc(Cl)ccc3CC3(CC3)NC4=O)ccc2n1 (stereo not shown) [Example 30, 2-(11′-Chloro-2′,5′-dioxo-2′,5′,6′,8′-tetrahydro-3′H-spiro[cyclopropane-1,7′-pyrido[3,4-e][3]benzazocine]-3′-yl)-N-(2-methyl-2H-indazol-5-yl)-3-phenylpropanamide]
0.0012 µM	0.097 µM	COCCC(C(=O)Nc1ccc(C(=O)O)cc1)n1cc2c(cc1=O)-c1cc(Cl)ccc1CC(CF)NC2=O (stereo not shown) [Example 33, 4-({2-[11-Chloro-7-(fluoromethyl)-2,5-dioxo-5,6,7,8-tetrahydropyrido[3,4-e][3]benzazocin-3(2H)-yl]-4-methoxybutanoyl}amino)benzoic acid]
0.28 µM	4.9 µM	CCC(C(=O)Nc1ccc(-c2noc(=O)[nH]2)cc1)n1cc2c(cc1=O)-c1cc(Cl)ccc1CNC2=O (stereo not shown) [Example 2, 2-(10-Chloro-2,5-dioxo-2,5,6,7-tetrahydro-3H-pyrido[3,4-d][2]benzazepin-3-yl)-N-[4-(5-oxo-4,5-dihydro-1,2,4-oxadiazol-3-yl)phenyl]butanamide]
0.036 µM	0.68 µM	CC(C)CC(C(=O)Nc1ccc(C(=O)O)cc1)n1cc2c(cc1=O)-c1cc(Cl)ccc1CCNC2=O (stereo not shown) [Example 8, 4-{[2-(11-Chloro-2,5-dioxo-5,6,7,8-tetrahydropyrido[3,4-e][3]benzazocin-3(2H)-yl)-4-methylpentanoyl]amino}benzoic acid]
0.034 µM	0.91 µM	COCCC(C(=O)Nc1ccc(C(N)=O)nc1)n1cc2c(cc1=O)-c1cc(Cl)ccc1CC1(CC1)NC2=O (stereo not shown) [Example 21, 5-{[2-(11′-Chloro-2′,5′-dioxo-2′,5′,6′,8′-tetrahydro-3′H-spiro[cyclopropane-1,7′-pyrido[3,4-e][3]benzazocine]-3′-yl)-4-methoxybutanoyl]amino}pyridine-2-carboxamide]
0.0028 µM	0.042 µM	COCCC(C(=O)Nc1ccc2nn(C)cc2c1)n1cc2c(cc1=O)-c1cc(Cl)ccc1CC(CF)NC2=O (stereo not shown) [Example 31, 2-[11-Chloro-7-(fluoromethyl)-2,5-dioxo-5,6,7,8-tetrahydropyrido[3,4-e][3]benzazocin-3(2H)-yl]-4-methoxy-N-(2-methyl-2H-indazol-5-yl)butanamide]
0.0045 µM	0.042 µM	O=C1NC2(CC2)Cc2ccc(Cl)cc2-c2cc(=O)n(C(Cc3ccccc3)C(=O)Nc3ccc4[nH]c(=O)[nH]c4c3)cc21 (stereo not shown) [Example 29, 2-(11′-Chloro-2′,5′-dioxo-2′,5′,6′,8′-tetrahydro-3′H-spiro[cyclopropane-1,7′-pyrido[3,4-e][3]benzazocine]-3′-yl)-N-(2-oxo-2,3-dihydro-1H-benzimidazol-5-yl)-3-phenylpropanamide]
0.027 µM	0.78 µM	COCCC(C(=O)Nc1ccc(C(N)=O)c(F)c1)n1cc2c(cc1=O)-c1cc(Cl)ccc1CC1(CC1)NC2=O (stereo not shown) [Example 13, 4-{[2-(11′-Chloro-2′,5′-dioxo-2′,5′,6′,8′-tetrahydro-3′H-spiro[cyclopropane-1,7′-pyrido[3,4-e][3]benzazocine]-3′-yl)-4-methoxybutanoyl]amino}-2-fluorobenzamide]
0.016 µM	1.7 µM	CCC(C(=O)Nc1ccc(-c2noc(=O)[nH]2)cc1)n1cc2c(cc1=O)-c1cc(Cl)ccc1CC1(CC1)NC2=O (stereo not shown) [Example 11, 2-(11′-Chloro-2′,5′-dioxo-2′,5′,6′,8′-tetrahydro-3′H-spiro[cyclopropane-1,7′-pyrido[3,4-e][3]benzazocine]-3′-yl)-N-[4-(5-oxo-4,5-dihydro-1,2,4-oxadiazol-3-yl)phenyl]butanamide]
0.0084 µM	0.23 µM	COCCC(C(=O)Nc1ccc2c(=O)n(C)[nH]c2c1)n1cc2c(cc1=O)-c1cc(Cl)ccc1CC1(CC1)NC2=O (stereo not shown) [Example 19, 2-(11′-Chloro-2′,5′-dioxo-2′,5′,6′,8′-tetrahydro-3′H-spiro[cyclopropane-1,7′-pyrido[3,4-e][3]benzazocine]-3′-yl)-4-methoxy-N-(2-methyl-3-oxo-2,3-dihydro-1H-indazol-6-yl)butanamide]
0.0025 µM	0.37 µM	CO[C@H]1CC[C@H](CC(C(=O)Nc2ccc(C(=O)O)cc2)n2cc3c(cc2=O)-c2cc(Cl)ccc2CC2(CC2)NC3=O)CC1 (stereo partly drawn) [Example 25, 4-{[2-(11′-Chloro-2′,5′-dioxo-2′,5′,6′,8′-tetrahydro-3′H-spiro[cyclopropane-1,7′-pyrido[3,4-e][3]benzazocine]-3′-yl)-3-(trans-4-methoxycyclohexyl)propanoyl]amino}benzoic acid]
